# Test results: ChEMBL document CHEMBL5154787 (J Med Chem, 2022)
# pIC50, pKi: −log10 of the molar value.
# Columns and labels:
# Rattus norvegicus [1] = experiment: Analgesic activity in STZ-induced diabetic peripheral neuropathic mechanical allodynia in overnight fasted Sprague-Dawley rat assessed as reduction in pain response by measuring paw withdrawal latency at 1 mg/kg, po measured after 5 hrs by Hargreaves test relative to control; assay type: functional; design: scale not given: the % may be the effect or the level left
# [2] = target: T1, AP2-associated protein kinase 1 (Homo sapiens, UniProt Q2M2I8); experiment: Inhibition of bacterially expressed GST-Xa-tagged human AAK1 using 5-FAM-labelled Aha-KEEQSQITSQVTGQIGWR-NH2 peptide as substrate incubated for 3 hrs in presence of ATP by electrophoretic analysis
# [3] = target: AP2-associated protein kinase 1 (Mus musculus, UniProt Q3UHJ0); experiment: Displacement of 3H-LP-927443 from AAK1 in C57BL6 mouse brain homogenate assessed as inhibition constant incubated for 1 hr by liquid scintillation counter analysis; assay type: tissue-based
# [4] = target: T1, AP2-associated protein kinase 1; experiment: Inhibition of full length human AAK1 expressed in HEK293F cells assessed as suppression of AP2 phosphorylation measured after 3 hrs by Western blot analysis based cellular assay; assay type: cell-based
# [5] = Metabolic stability in human liver microsomes assessed as parent compound remaining at 0.5 uM incubated for 10 mins in presence of NADPH by LC-MS/MS analysis; assay type: ADME, Microsome; details: read-out: Stability
# [6] = Metabolic stability in rat liver microsomes assessed as parent compound remaining at 0.5 uM incubated for 10 mins in presence of NADPH by LC-MS/MS analysis; assay type: ADME, Microsome; details: read-out: Stability
# [7] = Metabolic stability in mouse liver microsomes assessed as parent compound remaining at 0.5 uM incubated for 10 mins in presence of NADPH by LC-MS/MS analysis; assay type: ADME, Microsome; details: liver microsomes, read-out: Stability
# Cytochrome P450 3A4 = Cytochrome P450 3A4 (Homo sapiens, UniProt P08684); experiment: Inhibition of CYP3A4 (unknown origin) incubated for 10 mins in presence of NADPH by LC-MS/MS analysis; assay type: ADME
# [8] = Ratio of drug concentration in brain to plasma in Sprague-Dawley rat at 3 mg/kg, po measured at 2 hrs post dose; assay type: ADME, organism-based
# Rattus norvegicus [9] = experiment: Analgesic activity in CCI induced thermal hyperalgesia in Sprague-Dawley rat assessed as reduction in thermal hyperalgesia by measuring paw withdrawal latency at 1 mg/kg, po measured after 5 hrs by Hargreaves test relative to control; assay type: functional; design: scale not given: the % may be the effect or the level left
# [10] = Ratio of drug concentration in brain to plasma in CCI induced thermal hyperalgesia in Sprague-Dawley rat at 1 mg/kg, po measured at 5.5 hrs post dose; assay type: ADME, organism-based
# [11] = Ratio of drug concentration in brain to plasma in STZ-induced diabetic peripheral neuropathic mechanical allodynia in overnight fasted Sprague-Dawley rat at 1 mg/kg, po measured at 5.5 hrs post dose; assay type: ADME, organism-based
# [12] = Ratio of drug concentration in spinal cord to plasma in CCI induced thermal hyperalgesia in Sprague-Dawley rat at 1 mg/kg, po measured at 5.5 hrs post dose; assay type: ADME, organism-based
# [13] = Ratio of drug concentration in spinal cord to plasma in STZ-induced diabetic peripheral neuropathic mechanical allodynia in overnight fasted Sprague-Dawley rat at 1 mg/kg, po measured at 5.5 hrs post dose; assay type: ADME, organism-based
# [14] = Plasma concentration in CCI induced thermal hyperalgesia in Sprague-Dawley rat at 1 mg/kg, po measured at 5.5 hrs post dose; assay type: ADME, organism-based
# [15] = Plasma concentration in STZ-induced diabetic peripheral neuropathic mechanical allodynia in overnight fasted Sprague-Dawley rat at 1 mg/kg, po measured at 5.5 hrs post dose; assay type: ADME, organism-based
# [16] = Brain concentration in CCI induced thermal hyperalgesia in Sprague-Dawley rat at 1 mg/kg, po measured at 5.5 hrs post dose; assay type: ADME, organism-based; details: read-out: Ct
# [17] = Brain concentration in STZ-induced diabetic peripheral neuropathic mechanical allodynia in overnight fasted Sprague-Dawley rat at 1 mg/kg, po measured at 5.5 hrs post dose; assay type: ADME, organism-based; details: read-out: Ct
# [18] = Drug concentration in CCI induced thermal hyperalgesia in Sprague-Dawley rat spinal cord at 1 mg/kg, po measured after 5.5 hrs; assay type: ADME, organism-based; details: read-out: Ct
# [19] = Drug concentration in STZ-induced diabetic peripheral neuropathic mechanical allodynia in overnight fasted Sprague-Dawley rat spinal cord at 1 mg/kg, po measured after 5.5 hrs; assay type: ADME, organism-based; details: read-out: Ct
# [20] = target: BMP-2-inducible protein kinase (Homo sapiens, UniProt Q9NSY1); experiment: Inhibition of BIKE (unknown origin)
# [21] = target: Death-associated protein kinase 1 (Homo sapiens, UniProt P53355); experiment: Inhibition of DAPK1 (unknown origin)
# [22] = target: T2, Cyclin-G-associated kinase (Homo sapiens, UniProt O14976); experiment: Inhibition of GAK (unknown origin)
# T2 sequence (O14976 whole entry): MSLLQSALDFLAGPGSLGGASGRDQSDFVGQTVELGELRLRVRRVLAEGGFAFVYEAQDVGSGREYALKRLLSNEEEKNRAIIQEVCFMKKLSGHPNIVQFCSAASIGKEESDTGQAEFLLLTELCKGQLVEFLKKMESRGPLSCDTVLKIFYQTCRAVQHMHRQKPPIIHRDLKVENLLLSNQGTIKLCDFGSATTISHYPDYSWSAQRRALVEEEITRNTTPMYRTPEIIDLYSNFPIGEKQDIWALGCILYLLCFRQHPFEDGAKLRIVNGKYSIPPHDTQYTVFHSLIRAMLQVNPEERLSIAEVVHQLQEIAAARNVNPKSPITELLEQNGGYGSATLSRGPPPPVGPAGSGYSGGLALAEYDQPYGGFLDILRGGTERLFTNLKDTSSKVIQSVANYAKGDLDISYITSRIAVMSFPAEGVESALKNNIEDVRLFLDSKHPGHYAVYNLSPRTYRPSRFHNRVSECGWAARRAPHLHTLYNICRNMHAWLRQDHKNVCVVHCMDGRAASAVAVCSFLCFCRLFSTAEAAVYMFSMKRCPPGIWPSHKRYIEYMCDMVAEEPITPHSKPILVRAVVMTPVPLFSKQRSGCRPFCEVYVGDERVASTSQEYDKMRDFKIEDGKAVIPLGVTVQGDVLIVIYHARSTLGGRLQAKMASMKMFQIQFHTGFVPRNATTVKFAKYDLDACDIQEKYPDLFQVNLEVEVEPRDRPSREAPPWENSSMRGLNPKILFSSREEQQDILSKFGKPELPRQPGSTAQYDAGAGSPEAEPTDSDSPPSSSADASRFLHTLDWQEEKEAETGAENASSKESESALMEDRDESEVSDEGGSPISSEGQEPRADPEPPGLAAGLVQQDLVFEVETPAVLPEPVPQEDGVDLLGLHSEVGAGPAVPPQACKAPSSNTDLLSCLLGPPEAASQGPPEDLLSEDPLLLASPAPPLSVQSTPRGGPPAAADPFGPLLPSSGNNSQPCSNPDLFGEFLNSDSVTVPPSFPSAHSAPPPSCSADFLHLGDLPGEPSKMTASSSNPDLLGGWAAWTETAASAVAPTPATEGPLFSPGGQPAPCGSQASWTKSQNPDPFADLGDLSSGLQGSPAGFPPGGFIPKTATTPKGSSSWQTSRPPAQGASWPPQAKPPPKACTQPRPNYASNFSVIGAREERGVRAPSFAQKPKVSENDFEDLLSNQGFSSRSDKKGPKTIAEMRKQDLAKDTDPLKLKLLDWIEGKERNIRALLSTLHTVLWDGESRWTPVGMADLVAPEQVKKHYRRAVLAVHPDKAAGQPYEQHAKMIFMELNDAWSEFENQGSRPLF
# [23] = target: MAP kinase-interacting serine/threonine-protein kinase 2 (Homo sapiens, UniProt Q9HBH9); experiment: Inhibition of MNK2 (unknown origin)
# [24] = target: Death-associated protein kinase 3 (Homo sapiens, UniProt O43293); experiment: Inhibition of DAPK3 (unknown origin)
# [25] = target: T3, Homeodomain-interacting protein kinase 4 (Homo sapiens, UniProt Q8NE63); experiment: Inhibition of HIPK4 (unknown origin)
# T3 sequence (Q8NE63 whole entry): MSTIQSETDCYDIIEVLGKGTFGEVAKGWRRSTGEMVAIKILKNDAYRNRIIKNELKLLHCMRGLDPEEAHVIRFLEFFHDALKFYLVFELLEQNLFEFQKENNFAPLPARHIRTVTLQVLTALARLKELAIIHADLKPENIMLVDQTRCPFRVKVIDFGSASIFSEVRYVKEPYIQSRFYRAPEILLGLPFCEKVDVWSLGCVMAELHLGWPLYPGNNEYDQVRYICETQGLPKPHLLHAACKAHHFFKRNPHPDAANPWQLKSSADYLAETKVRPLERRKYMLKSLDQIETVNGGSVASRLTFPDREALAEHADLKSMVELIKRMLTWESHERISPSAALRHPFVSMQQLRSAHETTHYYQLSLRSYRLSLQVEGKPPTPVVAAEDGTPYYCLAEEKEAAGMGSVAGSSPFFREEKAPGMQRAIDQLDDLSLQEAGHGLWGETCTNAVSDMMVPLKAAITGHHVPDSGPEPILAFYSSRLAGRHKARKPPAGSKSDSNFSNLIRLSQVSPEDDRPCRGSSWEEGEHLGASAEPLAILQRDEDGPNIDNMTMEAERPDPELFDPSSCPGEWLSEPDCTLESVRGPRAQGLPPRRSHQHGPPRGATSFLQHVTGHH
# [26] = Inhibition of CK2A2 (unknown origin); design: species or system Homo sapiens
# Myotonin-protein kinase = Myotonin-protein kinase (Homo sapiens, UniProt Q09013); experiment: Inhibition of DMPK1 (unknown origin)
# [27] = Inhibition of MEK (unknown origin); design: species or system Homo sapiens
# [28] = target: Rho-associated protein kinase 2 (Homo sapiens, UniProt O75116); experiment: Inhibition of ROCK2 (unknown origin)
# [29] = target: Tyrosine-protein kinase receptor TYRO3 (Homo sapiens, UniProt Q06418); experiment: Inhibition of TYRO3 (unknown origin)
# [30] = Cardiotoxicity in aortic ring (unknown origin) assessed as relaxation of phenylephrine induced aortic ring contraction at 10 uM incubated for 1 hr; assay type: toxicity, tissue-based, Aorta; design: scale not given: the % may be the effect or the level left; details: human
# [31] = target: MAP kinase-interacting serine/threonine-protein kinase 1 (Homo sapiens, UniProt Q9BUB5); experiment: Inhibition of MNK1 (unknown origin)
# [32] = target: Myosin light chain kinase 2, skeletal/cardiac muscle (Homo sapiens, UniProt Q9H1R3); experiment: Inhibition of MYLK2 (unknown origin)
# [33] = target: Citron Rho-interacting kinase (Homo sapiens, UniProt O14578); experiment: Inhibition of CRIK (unknown origin)
# [34] = target: Tyrosine-protein kinase JAK2 (Homo sapiens, UniProt O60674); experiment: Inhibition of JAK2 (unknown origin)
# [35] = target: Dual specificity mitogen-activated protein kinase kinase 1 (Homo sapiens, UniProt Q02750); experiment: Inhibition of MEK1/MAP2K1 (unknown origin)
# [36] = target: Serine/threonine-protein kinase N2 (Homo sapiens, UniProt Q16513); experiment: Inhibition of PKN2 (unknown origin)
# [37] = target: STE20/SPS1-related proline-alanine-rich protein kinase (Homo sapiens, UniProt Q9UEW8); experiment: Inhibition of STLK3 (unknown origin)
# [38] = target: Serine/threonine-protein kinase tousled-like 1 (Homo sapiens, UniProt Q9UKI8); experiment: Inhibition of TLK1 (unknown origin)
# [39] = target: Serine/threonine-protein kinase tousled-like 2 (Homo sapiens, UniProt Q86UE8); experiment: Inhibition of TLK2 (unknown origin)
# Chain of Cytochrome P450 3A4 (P08684 whole entry): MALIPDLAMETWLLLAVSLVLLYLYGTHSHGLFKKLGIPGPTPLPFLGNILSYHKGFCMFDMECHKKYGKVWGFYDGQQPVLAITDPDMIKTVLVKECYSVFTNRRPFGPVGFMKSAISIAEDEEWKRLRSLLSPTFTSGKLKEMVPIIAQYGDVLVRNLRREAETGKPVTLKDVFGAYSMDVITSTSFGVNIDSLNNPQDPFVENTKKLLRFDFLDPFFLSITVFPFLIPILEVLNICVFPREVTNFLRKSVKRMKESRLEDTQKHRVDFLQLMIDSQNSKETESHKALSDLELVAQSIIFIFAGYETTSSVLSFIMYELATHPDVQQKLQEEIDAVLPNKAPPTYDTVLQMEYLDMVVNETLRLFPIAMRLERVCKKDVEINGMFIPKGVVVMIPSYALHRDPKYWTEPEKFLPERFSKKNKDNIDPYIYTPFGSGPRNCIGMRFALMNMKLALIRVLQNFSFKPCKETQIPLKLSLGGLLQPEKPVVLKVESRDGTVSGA
# Chain of AP2-associated protein kinase 1 (Mus musculus, UniProt Q3UHJ0) (Q3UHJ0 whole entry): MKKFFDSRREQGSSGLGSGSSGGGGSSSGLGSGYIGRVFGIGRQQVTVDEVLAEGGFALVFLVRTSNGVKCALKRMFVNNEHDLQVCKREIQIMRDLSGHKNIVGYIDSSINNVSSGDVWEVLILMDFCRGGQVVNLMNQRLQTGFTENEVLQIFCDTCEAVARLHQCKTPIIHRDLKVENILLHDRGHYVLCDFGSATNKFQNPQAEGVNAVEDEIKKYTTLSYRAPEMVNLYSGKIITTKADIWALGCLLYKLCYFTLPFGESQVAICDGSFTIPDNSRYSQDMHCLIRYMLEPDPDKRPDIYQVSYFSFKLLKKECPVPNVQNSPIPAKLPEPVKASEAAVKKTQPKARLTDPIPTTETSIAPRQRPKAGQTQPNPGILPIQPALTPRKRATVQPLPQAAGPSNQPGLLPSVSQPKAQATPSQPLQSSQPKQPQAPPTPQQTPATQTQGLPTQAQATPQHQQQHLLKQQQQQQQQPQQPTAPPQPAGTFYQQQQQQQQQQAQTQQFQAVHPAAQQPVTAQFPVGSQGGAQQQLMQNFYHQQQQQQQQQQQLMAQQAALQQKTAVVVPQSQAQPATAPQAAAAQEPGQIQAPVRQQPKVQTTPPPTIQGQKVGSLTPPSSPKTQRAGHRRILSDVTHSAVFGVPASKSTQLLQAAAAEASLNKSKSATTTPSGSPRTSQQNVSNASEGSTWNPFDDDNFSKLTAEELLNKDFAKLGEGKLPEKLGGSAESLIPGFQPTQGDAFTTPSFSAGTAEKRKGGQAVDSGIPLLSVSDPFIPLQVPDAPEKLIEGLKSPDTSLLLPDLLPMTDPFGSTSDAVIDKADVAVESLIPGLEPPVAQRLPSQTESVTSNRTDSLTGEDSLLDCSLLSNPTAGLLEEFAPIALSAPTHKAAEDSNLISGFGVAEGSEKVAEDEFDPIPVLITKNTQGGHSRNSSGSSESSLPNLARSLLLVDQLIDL
# T1 sequence (Q2M2I8 whole entry): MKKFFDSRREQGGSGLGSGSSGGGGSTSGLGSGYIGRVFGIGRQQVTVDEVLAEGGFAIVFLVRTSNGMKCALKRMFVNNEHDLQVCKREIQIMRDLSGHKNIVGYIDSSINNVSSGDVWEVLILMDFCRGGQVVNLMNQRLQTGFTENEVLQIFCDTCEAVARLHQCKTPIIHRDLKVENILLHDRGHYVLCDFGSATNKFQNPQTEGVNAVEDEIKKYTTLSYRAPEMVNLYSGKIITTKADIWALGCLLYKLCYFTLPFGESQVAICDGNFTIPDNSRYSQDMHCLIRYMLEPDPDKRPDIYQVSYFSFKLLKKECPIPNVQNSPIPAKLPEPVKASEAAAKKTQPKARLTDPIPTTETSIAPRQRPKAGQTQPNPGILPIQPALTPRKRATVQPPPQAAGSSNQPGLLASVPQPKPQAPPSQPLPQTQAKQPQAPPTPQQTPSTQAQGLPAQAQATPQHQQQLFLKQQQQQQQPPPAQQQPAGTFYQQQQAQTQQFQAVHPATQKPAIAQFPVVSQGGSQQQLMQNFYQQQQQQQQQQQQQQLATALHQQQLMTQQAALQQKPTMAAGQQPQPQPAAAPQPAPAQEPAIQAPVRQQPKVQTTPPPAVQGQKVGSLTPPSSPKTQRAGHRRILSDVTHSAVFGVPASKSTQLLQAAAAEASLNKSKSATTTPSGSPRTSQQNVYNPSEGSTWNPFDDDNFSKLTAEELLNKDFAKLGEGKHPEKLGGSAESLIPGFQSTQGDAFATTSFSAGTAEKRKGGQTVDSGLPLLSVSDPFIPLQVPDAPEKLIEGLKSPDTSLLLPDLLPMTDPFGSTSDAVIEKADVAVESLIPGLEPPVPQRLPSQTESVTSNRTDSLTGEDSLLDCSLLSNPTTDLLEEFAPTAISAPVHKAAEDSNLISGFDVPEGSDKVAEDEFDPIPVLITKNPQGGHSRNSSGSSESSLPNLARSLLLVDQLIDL
# Chain of BMP-2-inducible protein kinase (Q9NSY1 whole entry): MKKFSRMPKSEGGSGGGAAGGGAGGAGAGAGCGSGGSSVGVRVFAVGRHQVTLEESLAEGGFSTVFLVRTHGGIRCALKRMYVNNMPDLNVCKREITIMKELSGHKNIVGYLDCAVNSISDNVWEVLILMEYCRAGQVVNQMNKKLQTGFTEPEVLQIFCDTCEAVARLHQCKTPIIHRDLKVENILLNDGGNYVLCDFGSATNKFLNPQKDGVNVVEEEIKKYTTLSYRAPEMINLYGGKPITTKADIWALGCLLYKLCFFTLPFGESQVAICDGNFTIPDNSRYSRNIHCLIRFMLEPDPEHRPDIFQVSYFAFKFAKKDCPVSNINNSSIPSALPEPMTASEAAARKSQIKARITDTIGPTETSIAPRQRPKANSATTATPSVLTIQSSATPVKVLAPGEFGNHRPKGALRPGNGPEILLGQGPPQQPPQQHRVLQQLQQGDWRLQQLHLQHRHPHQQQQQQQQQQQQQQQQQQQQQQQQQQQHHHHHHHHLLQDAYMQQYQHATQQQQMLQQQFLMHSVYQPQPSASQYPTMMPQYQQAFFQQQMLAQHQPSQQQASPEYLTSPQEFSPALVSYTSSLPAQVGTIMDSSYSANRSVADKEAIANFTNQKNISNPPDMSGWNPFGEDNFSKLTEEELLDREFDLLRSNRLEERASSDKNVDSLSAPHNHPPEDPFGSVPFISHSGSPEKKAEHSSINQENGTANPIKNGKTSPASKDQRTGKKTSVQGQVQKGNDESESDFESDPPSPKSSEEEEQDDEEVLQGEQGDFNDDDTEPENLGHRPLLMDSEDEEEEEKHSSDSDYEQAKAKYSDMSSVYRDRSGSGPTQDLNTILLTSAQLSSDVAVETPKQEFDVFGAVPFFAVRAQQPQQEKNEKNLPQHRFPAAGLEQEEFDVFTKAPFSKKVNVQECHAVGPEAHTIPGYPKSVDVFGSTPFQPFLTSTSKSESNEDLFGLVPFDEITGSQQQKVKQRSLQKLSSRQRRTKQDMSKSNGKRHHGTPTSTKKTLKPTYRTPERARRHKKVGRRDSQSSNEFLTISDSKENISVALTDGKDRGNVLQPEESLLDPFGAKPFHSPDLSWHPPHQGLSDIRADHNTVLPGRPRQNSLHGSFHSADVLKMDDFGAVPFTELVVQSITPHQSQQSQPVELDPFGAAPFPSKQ
# Chain of Death-associated protein kinase 3 (O43293 whole entry): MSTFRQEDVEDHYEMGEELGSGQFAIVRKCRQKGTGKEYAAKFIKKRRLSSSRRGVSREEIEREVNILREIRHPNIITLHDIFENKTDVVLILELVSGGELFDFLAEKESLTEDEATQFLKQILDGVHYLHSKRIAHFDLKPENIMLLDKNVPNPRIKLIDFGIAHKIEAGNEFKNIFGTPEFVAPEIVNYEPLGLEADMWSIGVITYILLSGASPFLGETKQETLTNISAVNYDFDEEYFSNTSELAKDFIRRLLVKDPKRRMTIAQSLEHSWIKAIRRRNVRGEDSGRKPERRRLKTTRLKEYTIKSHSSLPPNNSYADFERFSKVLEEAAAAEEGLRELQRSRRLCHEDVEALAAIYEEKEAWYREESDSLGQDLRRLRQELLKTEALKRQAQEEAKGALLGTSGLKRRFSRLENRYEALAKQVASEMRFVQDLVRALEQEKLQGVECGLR
# Chain of MAP kinase-interacting serine/threonine-protein kinase 2 (Q9HBH9 whole entry): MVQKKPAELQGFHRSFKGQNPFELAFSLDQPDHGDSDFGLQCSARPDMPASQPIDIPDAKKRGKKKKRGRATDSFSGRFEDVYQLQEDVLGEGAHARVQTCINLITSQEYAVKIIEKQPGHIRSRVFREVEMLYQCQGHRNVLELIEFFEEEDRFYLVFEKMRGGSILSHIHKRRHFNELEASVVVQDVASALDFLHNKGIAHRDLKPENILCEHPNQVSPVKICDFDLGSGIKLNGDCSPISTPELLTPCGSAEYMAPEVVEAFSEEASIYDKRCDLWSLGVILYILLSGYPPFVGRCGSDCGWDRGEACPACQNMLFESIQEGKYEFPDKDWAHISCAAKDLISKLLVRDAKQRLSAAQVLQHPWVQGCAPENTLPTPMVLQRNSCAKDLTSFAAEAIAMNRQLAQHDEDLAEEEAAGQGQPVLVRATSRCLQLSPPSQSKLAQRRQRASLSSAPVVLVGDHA
# Chain of Dual specificity mitogen-activated protein kinase kinase 1 (Q02750 whole entry): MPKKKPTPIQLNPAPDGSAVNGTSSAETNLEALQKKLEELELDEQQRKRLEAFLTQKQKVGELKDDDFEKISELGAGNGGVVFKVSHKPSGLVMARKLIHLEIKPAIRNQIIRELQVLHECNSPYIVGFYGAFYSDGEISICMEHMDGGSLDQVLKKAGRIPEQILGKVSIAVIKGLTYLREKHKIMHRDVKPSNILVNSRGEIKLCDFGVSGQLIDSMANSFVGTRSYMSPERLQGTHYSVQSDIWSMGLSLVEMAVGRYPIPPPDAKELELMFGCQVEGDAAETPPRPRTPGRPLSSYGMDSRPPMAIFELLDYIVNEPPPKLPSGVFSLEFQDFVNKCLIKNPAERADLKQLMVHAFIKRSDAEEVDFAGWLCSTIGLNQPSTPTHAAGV
pIC50 [2],pKi [3],pIC50 [4],"remaining at 10 min, 0.5 µM [5] [%]","remaining at 10 min, 0.5 µM [6] [%]","remaining at 10 min, 0.5 µM [7] [%]",pIC50 (Cytochrome P450 3A4),pIC50 [20],pIC50 [23],pIC50 [25],SMILES,pIC50 [21],pIC50 [24],Activity [30] [%],also measured
8.59,9.28,8.80,90,80,79,5.05,,,,CC(=O)Nc1cc(-c2ccc(OC[C@@H](N)CC(C)C)c(F)c2)ccn1,,,,Activity (Rattus norvegicus [1]): 65%; Kp at 2 h [8]: 1.5; Activity (Rattus norvegicus [9]): 56%; Kp at 5.5 h [10]: 1.2; Kp at 5.5 h [11]: 1; Kp at 5.5 h [12]: 1; Kp at 5.5 h [13]: 0.8; concentration at 5.5 h [14]: 270 nM; concentration at 5.5 h [15]: 190 nM; concentration at 5.5 h [16]: 320 nM; concentration at 5.5 h [17]: 190 nM; concentration at 5.5 h [18]: 270 nM; concentration at 5.5 h [19]: 150 nM
9.10,10.15,,77,91,84,< 4.70,7.70,6.92,6.19,COC(=O)Nc1cc(-c2ccc(OC[C@@](C)(N)CC(C)C)c(C(F)F)n2)ccn1,6.25,5.96,89,pIC50 [22]: 6.80; pIC50 [26]: 6.17; pIC50 (Myotonin-protein kinase): 5.82; pIC50 [27]: 6.21; pIC50 [28]: 6.85; pIC50 [29]: 5.89
9.30,9.77,8.92,93,99,72,< 4.70,7.52,5.92,5.96,COC(=O)Nc1cc(-c2ccc(OC[C@@](C)(N)CC(C)C)c(Cl)n2)ccn1,6.09,5.96,74,pIC50 [31]: 6.92; pIC50 [32]: 6.19; pIC50 [33]: 7.05; pIC50 [34]: 5.80; pIC50 [35]: 5.92; pIC50 [36]: 6.85; pIC50 [37]: 5.85; pIC50 [38]: 5.92; pIC50 [39]: 5.85
